# Experimental data published in patent US11731985B2, “Compositions and methods for treating cancer” (Hb Therapeutics Inc., priority 2018, dated 2023).
# Tested on: LN229 cells
# Assay: Cell viability assay, LN229 cells
# Type: cell-based, human
# Conditions: Homo sapiens, LN-229, LN229 cells, read-out: Inhibition of Cancer Cell Growth (IC50)
# Experimental: Each of the compounds was used to treat the cancer LN229 cells and examined first by western and dot blot assays for the degradation of SUMO1 protein and then by cell viability assay for the IC50 values of anticancer activity.
# LN229 cell were treated with a series of dilutions of CPD1 and examined by cell viability assay for cell growth inhibition (FIG. 2B). […] Therefore, CPD1 acts as the degrader of SUMO1 protein and inhibitor of SUMO1 conjugation in cancer cells.
row,Compound,IC50
1,N#Cc1ccc(NC(=O)Nc2nc3ccc(Cl)cc3s2)cc1C#N [Compound 91],≤ 5 µM
2,N#Cc1ccc2nc(NC(=O)Nc3ccc4[nH]c(=O)[nH]c4c3)sc2c1 [Compound 108],> 20 µM
3,"NC(=O)C1CCc2nc(NC(=O)Nc3cccc(Cl)c3)sc2C1 (stereo not shown) [Compound 90, 2-[(3-chlorophenyl)carbamoylamino]-4,5,6,7-tetrahydro-1,3-benzothiazole-6-carboxamide]",> 20 µM
4,N#Cc1ccc(NC(=O)Nc2nc3ccc(C(F)(F)F)cc3s2)cc1 [Compound 117],≤ 5 µM
5,CN(C)C1CCc2nc(NC(=O)Nc3cccc(C#N)c3)sc2C1 (stereo not shown) [Compound 69],≤ 20 µM
6,O=C(Nc1cccc(C(=O)O)c1)Nc1nc2ccc([N+](=O)[O-])cc2s1 [Compound 27],> 20 µM
7,N#Cc1ccc(NC(=O)Nc2nc3ccc(Cl)cc3s2)cc1 [Compound 94],≤ 5 µM
8,O=C(Nc1cccc([N+](=O)[O-])c1)Nc1nc2c(Cl)cccc2s1 [Compound 12],≤ 20 µM
9,O=C(Nc1nc2ccccc2s1)Nc1ccc([N+](=O)[O-])cc1Cl [Compound 9],> 20 µM
10,N#Cc1c(F)ccc(NC(=O)Nc2nc3ccc(Cl)cc3s2)c1F [Compound 122],≤ 5 µM
11,N#Cc1cccc(NC(=O)Nc2nc3c(s2)CNCC3)c1 [Compound 50],≤ 20 µM
12,N#Cc1cc(Cl)cc(NC(=O)Nc2nc3ccc(Cl)cc3s2)c1 [Compound 93],≤ 5 µM
13,N#Cc1ccc2nc(NC(=O)Nc3ccccc3C(F)(F)F)sc2c1 [Compound 51],≤ 20 µM
14,N#Cc1ccc(NC(=O)Nc2nc3ccc(Cl)cc3s2)cc1Cl [Compound 118],≤ 5 µM
15,N#Cc1cccc(NC(=O)Nc2nc3ccc(Cl)cc3s2)c1F [Compound 95],> 20 µM
16,CC(=O)N1CCc2nc(NC(=O)Nc3cccc(C#N)c3)sc2C1 [Compound 65],> 20 µM
17,N#Cc1cccc(NC(=O)Nc2nc3c(s2)CC(N)CC3)c1 (stereo not shown) [Compound 67],≤ 20 µM
18,O=C(Nc1ccccc1)Nc1nc2ccccc2s1 [Compound 11],> 20 µM
19,CC(=O)Nc1ccc2nc(NC(=O)Nc3cccc(C#N)c3)sc2c1 [Compound 75],> 20 µM
20,N#Cc1cc(F)cc(NC(=O)Nc2nc3ccc(Cl)cc3s2)c1 [Compound 105],≤ 5 µM
21,COc1ccc(-c2cccc(NC(=O)Nc3nc4ccc(C#N)cc4s3)c2)cc1 [Compound 33],≤ 5 µM

row,Compound,IC50
1,N#Cc1ccc2nc(NC(=O)Nc3cc(Cl)cc(Cl)c3)sc2c1 [Compound 37],≤ 5 µM
2,CCOC(=O)C1CCc2nc(NC(=O)Nc3cccc(C#N)c3)sc2C1 (stereo not shown) [Compound 79],> 20 µM
3,O=C(Nc1cccc([N+](=O)[O-])c1)Nc1nc2ccc(Cl)cc2s1 [Compound 4],≤ 5 µM
4,N#CC1CCc2nc(NC(=O)Nc3cccc(Cl)c3)sc2C1 (stereo not shown) [Compound 97],≤ 20 µM
5,Cc1ccc(NC(=O)Nc2nc3ccc(Cl)cc3s2)cc1C#N [Compound 88],≤ 20 µM
6,COc1cccc(NC(=O)Nc2nc3ccc(C#N)cc3s2)c1 [Compound 38],≤ 5 µM
7,N#Cc1ccc(NC(=O)Nc2nc3ccc(Cl)cc3s2)cc1C(F)(F)F [Compound 119],≤ 5 µM
8,CC(C(=O)Nc1nc2ccc(C#N)cc2s1)c1ccccc1 (stereo not shown) [Compound 54],> 20 µM
9,O=C(Nc1ccc(Cl)cc1)Nc1nc2ccccc2s1 [Compound 7],> 20 µM
10,N#Cc1ccc(F)c(NC(=O)Nc2nc3ccc(Cl)cc3s2)c1 [Compound 96],≤ 5 µM
11,N#Cc1ccc2nc(NC(=O)C3(c4ccccc4)CC3)sc2c1 [Compound 57],> 20 µM
12,N#Cc1cccc(NC(=O)Nc2nc3ccc(F)cc3s2)c1 [Compound 70],≤ 5 µM
13,O=C(Nc1ccc([N+](=O)[O-])cc1)Nc1nc2ccc(Cl)cc2s1 [Compound 6],≤ 5 µM
14,CN1CCc2nc(NC(=O)Nc3cccc(C#N)c3)sc2C1 [Compound 52],> 20 µM
15,Cc1ccc2nc(NC(=O)Nc3cccc(C#N)c3)sc2c1 [Compound 44],> 20 µM
16,CN(C(=O)Nc1nc2ccc(C#N)cc2s1)c1ccccc1 [Compound 76],> 20 µM
17,O=C(Nc1cccc(Cl)c1)Nc1nc2ccc(Br)cc2s1 [Compound 21],> 20 µM
18,N#Cc1ccc(Cl)c(NC(=O)Nc2nc3ccc(Cl)cc3s2)c1 [Compound 86],≤ 5 µM
19,COC(=O)c1ccc2nc(NC(=O)Nc3cccc([N+](=O)[O-])c3)sc2c1 [Compound 28],≤ 20 µM
20,O=C(Nc1nc2ccc([N+](=O)[O-])cc2s1)Nc1c(Cl)cccc1Cl [Compound 14],≤ 20 µM
21,CC(C)(C)OC(=O)NC1CCc2nc(NC(=O)Nc3cccc(C#N)c3)sc2C1 (stereo not shown) [Compound 61],≤ 5 µM

row,Compound,IC50
1,N#Cc1cccc(NC(=O)Nc2nc3ccc(N)cc3s2)c1 [Compound 77],> 20 µM
2,CC(C)(C)OC(=O)N[C@H]1CCc2nc(NC(=O)Nc3cccc(C#N)c3)sc2C1 [Compound 63],≤ 20 µM
3,N#Cc1ccc2nc(NC(=O)Nc3ccnc(Cl)c3)sc2c1 [Compound 99],≤ 5 µM
4,O=C(Nc1cccc([N+](=O)[O-])c1)Nc1nc2ccc(F)cc2s1 [Compound 10],≤ 5 µM
5,N#Cc1ccc2nc(NC(=O)Nc3cccc4ccccc34)sc2c1 [Compound 109],> 20 µM
6,CS(=O)(=O)c1ccc2nc(NC(=O)Nc3cccc(Cl)c3)sc2c1 [Compound 20],> 20 µM
7,N#Cc1cccc(NC(=O)Nc2nc3c(F)cc(F)cc3s2)c1 [Compound 102],≤ 5 µM
8,COc1cncc(NC(=O)Nc2nc3ccc(C#N)cc3s2)c1 [Compound 81],> 20 µM
9,N#Cc1ccc(NC(=O)Nc2nc3ccc(Cl)cc3s2)c(Cl)c1 [Compound 104],≤ 5 µM
10,N#Cc1cccc(NC(=O)Nc2nc3ccc(OC(F)(F)F)cc3s2)c1 [Compound 103],≤ 5 µM
11,CCOC(=O)C1CCc2nc(NC(=O)Nc3cccc(Cl)c3)sc2C1 (stereo not shown) [Compound 80],> 20 µM
12,N#Cc1ccc2nc(NC(=O)Nc3cccc(Oc4ccccc4)c3)sc2c1 [Compound 98],≤ 5 µM
13,N#Cc1cccc(NC(=O)Nc2nc3ccc(Br)cc3s2)c1 [Compound 74],≤ 5 µM
14,N#Cc1cccc(NC(=O)Nc2nc3ccc(C(=O)N4CCOCC4)cc3s2)c1 [Compound 60],> 20 µM
15,N#Cc1cccc(NC(=O)Nc2nc3ccc(C(F)(F)F)cc3s2)c1 [Compound 100],≤ 5 µM
16,CS(=O)(=O)c1ccc2nc(NC(=O)Nc3cccc(C#N)c3)sc2c1 [Compound 114],≤ 20 µM
17,N#Cc1ccc(NC(=O)Nc2nc3ccc(C(F)(F)F)cc3s2)cc1C#N [Compound 13],> 20 µM
18,CC(C)(C)OC(=O)N[C@@H]1CCc2nc(NC(=O)Nc3cccc(C#N)c3)sc2C1 [Compound 62],≤ 5 µM
19,N#Cc1ccc2nc(NC(=O)Nc3cccc([N+](=O)[O-])c3)sc2c1 [Compound 23],≤ 5 µM
20,N#Cc1cccc(NC(=O)Nc2nc3ccc(Cl)cc3s2)c1 [Compound 42],≤ 5 µM
21,N#Cc1cc(NC(=O)Nc2nc3ccc(Cl)cc3s2)ccc1F [Compound 92],≤ 5 µM

row,Compound,IC50
1,N#Cc1cccc(NC(=O)Nc2nc3c(Cl)cc(Cl)cc3s2)c1 [Compound 101],≤ 5 µM
2,Cc1ccc(NC(=O)Nc2nc3ccc(C#N)cc3s2)nc1 [Compound 35],> 20 µM
3,Cc1ccc(C(C)C(=O)Nc2nc3ccc(C#N)cc3s2)cc1 (stereo not shown) [Compound 55],≤ 20 µM
4,N#Cc1ccc(NC(=O)Nc2nc3ccc(Cl)cc3s2)cc1F [Compound 107],≤ 5 µM
5,N#Cc1ccc2nc(NC(=O)Nc3ccc(Cl)c(Cl)c3)sc2c1 [Compound 41],≤ 5 µM
6,"O=C(Cc1ccc(Cl)cc1)Nc1nc2ccc([N+](=O)[O-])cc2s1 [Compound 26, 2-(4-chlorophenyl)-N-(6-nitro-1,3-benzothiazol-2-yl)acetamide]",≤ 20 µM
7,COc1ccc2nc(NC(=O)Nc3cccc(C#N)c3)sc2c1 [Compound 43],≤ 20 µM
8,N#Cc1ccc2nc(NC(=O)Nc3cccc(N4CCOCC4)c3)sc2c1 [Compound 82],≤ 20 µM
9,N#Cc1cc(Br)cc(NC(=O)Nc2nc3ccc(Cl)cc3s2)c1 [Compound 106],≤ 20 µM
10,COc1cccc(NC(=O)Nc2nc3ccc(C#N)cc3s2)n1 [Compound 68],> 20 µM
11,O=C(Nc1nc2cccc([N+](=O)[O-])c2s1)Nc1ccc(Cl)cc1F [Compound 16],> 20 µM
12,N#Cc1ccc2nc(NC(=O)NCc3ccccc3)sc2c1 [Compound 73],≤ 20 µM
13,N#Cc1cccc(NC(=O)Nc2nc3c(s2)COCC3)c1 [Compound 58],≤ 20 µM
14,N#Cc1ccc2nc(NC(=O)Nc3cccc(C(=O)OCCOCCN)c3)sc2c1 [Compound 112],> 20 µM
15,CCOC(=O)c1ccc2nc(NC(=O)Nc3cccc(C#N)c3)sc2c1 [Compound 53],≤ 5 µM
16,O=C1N(c2cccc(Cl)c2)CCCN1c1nc2ccc([N+](=O)[O-])cc2s1 [Compound 29],> 20 µM
17,CN1CCN(c2cccc(NC(=O)Nc3nc4ccc(C#N)cc4s3)c2)CC1 [Compound 83],≤ 5 µM
18,Cc1ccc(-c2cccc(NC(=O)Nc3nc4ccc(C#N)cc4s3)c2)cc1 [Compound 34],≤ 5 µM
19,"N#Cc1cc(F)cc(NC(=O)Nc2nc3ccc(C(F)(F)F)cc3s2)c1 [Compound 113, 1-(3-cyano-5-fluorophenyl)-3-[6-(trifluoromethyl)-1,3-benzothiazol-2-yl]urea]",≤ 5 µM

# Same assay, conditions: LN229 cells, read-out: Inhibition of Cancer Cell Growth (IC50)
row,Compound,IC50
1,CCc1ccc(NC(=O)Nc2nc3ccc(C#N)cc3s2)cc1 [Compound 39],≤ 5 µM
2,O=C(Nc1cccc(Cl)c1)Nc1nc2ccc([N+](=O)[O-])cc2s1 [Compound 19],> 20 µM
3,CC(C)(C)OC(=O)NCCOCCOc1cccc(NC(=O)Nc2nc3ccc(C#N)cc3s2)c1 [Compound 120],≤ 5 µM
4,N#Cc1ccc2nc(NC(=O)Nc3cccc(OCCOCCN)c3)sc2c1 [Compound 121],> 20 µM
5,O=C(Nc1cccc(Cl)c1)Nc1nc2ccc([N+](=O)[O-])cc2s1 [Compound 3],≤ 5 µM
6,O=C(Nc1ccc(Cl)cc1)Nc1nc2ccc([N+](=O)[O-])cc2s1 [Compound 5],≤ 5 µM
